Assay results published in ChEMBL document CHEMBL1130855, “Carbohydrate modifications in the spirostane cellobioside cholesterol absorption inhibitor series” (1998).

Assays:
[1] = system: Cricetinae gen. sp.; test: Inhibitory activity against cholesterol absorption in the hamster.; assay type: functional
[2] = system: Cricetinae gen. sp.; test: Inhibition of cholesterol absorption in the hamster.; assay type: functional

| Structure (SMILES) | Relative potency [1] | ED50 [2] |
| --- | --- | --- |
| C[C@@H]1CC[C@@]2(OC1)O[C@H]1C[C@H]3[C@@H]4CC[C@H]5C[C@@H](O[C@@H]6O[C@@H](CO)[C@@H](O[C@@H]7O[C@@H](CO)[C@@H](OC(=O)Nc8ccccc8F)[C@H](O)[C@@H]7O)[C@H](O)[C@@H]6O)CC[C@]5(C)[C@H]4CC(=O)[C@]3(C)[C@H]1[C@@H]2C | 5 | 0.15 mg/kg |
| C[C@@H]1CC[C@@]2(OC1)O[C@H]1C[C@H]3[C@@H]4CC[C@H]5C[C@@H](O[C@@H]6O[C@@H](CO)[C@@H](O[C@@H]7O[C@@H](CO)C[C@H](O)[C@@H]7O)[C@H](O)[C@@H]6O)CC[C@]5(C)[C@H]4CC(=O)[C@]3(C)[C@H]1[C@@H]2C | 433 | 13 mg/kg |
| C[C@@H]1CC[C@@]2(OC1)O[C@H]1C[C@H]3[C@@H]4CC[C@H]5C[C@@H](O[C@@H]6O[C@@H](CO)[C@@H](O[C@@H]7O[C@@H](C)C[C@H](O)[C@@H]7O)[C@H](O)[C@@H]6O)CC[C@]5(C)[C@H]4CC(=O)[C@]3(C)[C@H]1[C@@H]2C | 100 | 3 mg/kg |
| C[C@@H]1CC[C@@]2(OC1)O[C@H]1C[C@H]3[C@@H]4CC[C@H]5C[C@@H](O[C@@H]6O[C@@H](CO)[C@@H](O[C@@H]7O[C@@H](COC(=O)Nc8ccccc8F)[C@@H](O)[C@H](O)[C@@H]7O)[C@H](O)[C@@H]6O)CC[C@]5(C)[C@H]4CC(=O)[C@]3(C)[C@H]1[C@@H]2C | 10 | 0.3 mg/kg |
| C[C@@H]1CC[C@@]2(OC1)O[C@H]1C[C@H]3[C@@H]4CC[C@H]5C[C@@H](O[C@@H]6O[C@@H](CO)[C@@H](O[C@@H]7O[C@@H](CO)[C@@H](O)[C@H](O)[C@@H]7O)[C@H](O)[C@@H]6O)CC[C@]5(C)[C@H]4CC(=O)[C@]3(C)[C@H]1[C@@H]2C [CELLOBIOSYL HECOGENIN] | 333 | 10 mg/kg |
| C[C@@H]1CC[C@@]2(OC1)O[C@H]1C[C@H]3[C@@H]4CC[C@H]5C[C@@H](O[C@@H]6O[C@@H](COC(=O)Nc7ccccc7F)[C@@H](O[C@@H]7O[C@@H](COC(=O)Nc8ccccc8F)[C@@H](OC(=O)Nc8ccccc8F)[C@H](O)[C@@H]7O)[C@H](O)[C@@H]6O)CC[C@]5(C)[C@H]4C(=O)C[C@]3(C)[C@H]1[C@@H]2C | 8 | 0.2 mg/kg |
| C[C@@H]1CC[C@@]2(OC1)O[C@H]1C[C@H]3[C@@H]4CC[C@H]5C[C@@H](O[C@@H]6O[C@@H](COC(=O)Nc7ccccc7F)C(O[C@@H]7O[C@@H](CO)C(O)[C@H](O)C7O)[C@H](O)C6O)CC[C@]5(C)[C@H]4C(=O)C[C@]3(C)[C@H]1[C@@H]2C (stereo partly specified) | 280 | 7 mg/kg |
| C[C@@H]1CC[C@@]2(OC1)O[C@H]1C[C@H]3[C@@H]4CC[C@H]5C[C@@H](O[C@@H]6O[C@@H](CO)[C@@H](O[C@@H]7O[C@@H](COC(=O)Nc8ccccc8F)[C@@H](OC(=O)Nc8ccccc8F)[C@H](O)C7O)[C@H](O)[C@@H]6O)CC[C@]5(C)[C@H]4C(=O)C[C@]3(C)[C@H]1[C@@H]2C (stereo partly specified) | 1 | 0.025 mg/kg |
| C[C@@H]1CC[C@@]2(OC1)O[C@H]1C[C@H]3[C@@H]4CC[C@H]5C[C@@H](O[C@@H]6O[C@@H](CO)[C@@H](O[C@@H]7O[C@@H](C)[C@@H](O)[C@H](O)[C@@H]7O)[C@H](O)[C@@H]6O)CC[C@]5(C)[C@H]4CC(=O)[C@]3(C)[C@H]1[C@@H]2C | 107 | 3.2 mg/kg |
| C[C@@H]1CC[C@@]2(OC1)OC1C[C@H]3[C@@H]4CC[C@H]5C[C@@H](O[C@@H]6O[C@@H](C)[C@@H](O[C@@H]7O[C@@H](CO)[C@@H](O)[C@H](O)[C@@H]7O)[C@H](O)[C@@H]6O)CC[C@]5(C)[C@H]4CC(=O)[C@]3(C)C1[C@@H]2C (stereo partly specified) | 167 | 5 mg/kg |
| C[C@@H]1CC[C@@]2(OC1)O[C@H]1C[C@H]3[C@@H]4CC[C@H]5C[C@@H](O[C@@H]6O[C@@H](CO)[C@@H](O[C@@H]7O[C@@H](CO)[C@@H](OC(=O)Nc8ccccc8F)[C@H](OC(=O)Nc8ccccc8F)[C@@H]7O)[C@H](O)[C@@H]6O)CC[C@]5(C)[C@H]4C(=O)C[C@]3(C)[C@H]1[C@@H]2C | 4 | 0.1 mg/kg |
| C[C@@H]1CC[C@@]2(OC1)O[C@H]1C[C@H]3[C@@H]4CC[C@H]5C[C@@H](O[C@@H]6O[C@@H](CO)[C@@H](O[C@@H]7O[C@@H](C)[C@@H](OC(=O)Nc8ccccc8F)[C@H](O)[C@@H]7O)[C@H](O)[C@@H]6O)CC[C@]5(C)[C@H]4CC(=O)[C@]3(C)[C@H]1[C@@H]2C | 1 | 0.03 mg/kg |
| C[C@@H]1CC[C@@]2(OC1)O[C@H]1C[C@H]3[C@@H]4CC[C@H]5C[C@@H](O[C@@H]6O[C@@H](CO)[C@@H](O[C@@H]7O[C@@H](COC(=O)Nc8ccccc8F)[C@@H](OC(=O)Nc8ccccc8F)[C@H](O)C7O)[C@H](O)[C@@H]6O)CC[C@]5(C)[C@H]4CC(=O)[C@]3(C)[C@H]1[C@@H]2C (stereo partly specified) | 2.3 | 0.07 mg/kg |
| C[C@@H]1CC[C@@]2(OC1)O[C@H]1C[C@H]3[C@@H]4CC[C@H]5C[C@@H](O[C@@H]6O[C@@H](C)[C@@H](O[C@@H]7O[C@@H](C)[C@@H](O)[C@H](O)[C@@H]7O)[C@H](O)[C@@H]6O)CC[C@]5(C)[C@H]4CC(=O)[C@]3(C)[C@H]1[C@@H]2C | 167 | 5 mg/kg |
| C[C@@H]1CC[C@@]2(OC1)O[C@H]1C[C@H]3[C@@H]4CC[C@H]5C[C@@H](O[C@@H]6O[C@@H](CO)[C@@H](O[C@@H]7O[C@@H](COC(=O)Nc8ccccc8F)[C@@H](O)[C@H](O)[C@@H]7O)[C@H](O)[C@@H]6O)CC[C@]5(C)[C@H]4C(=O)C[C@]3(C)[C@H]1[C@@H]2C | 8 | 0.2 mg/kg |
| C[C@@H]1CC[C@@]2(OC1)O[C@H]1C[C@H]3[C@@H]4CC[C@H]5C[C@@H](O[C@@H]6O[C@@H](COC(=O)Nc7ccccc7F)[C@@H](O[C@@H]7O[C@@H](COC(=O)Nc8ccccc8F)[C@@H](O)[C@H](O)[C@@H]7O)[C@H](O)[C@@H]6O)CC[C@]5(C)[C@H]4C(=O)C[C@]3(C)[C@H]1[C@@H]2C | 32 | 0.8 mg/kg |
| C[C@@H]1CC[C@@]2(OC1)O[C@H]1C[C@H]3[C@@H]4CC[C@H]5C[C@@H](O[C@@H]6O[C@@H](CO)[C@@H](O[C@@H]7O[C@@H](COC(=O)Nc8ccccc8F)C[C@H](O)[C@@H]7O)[C@H](O)[C@@H]6O)CC[C@]5(C)[C@H]4CC(=O)[C@]3(C)[C@H]1[C@@H]2C | 5 | 0.15 mg/kg |
| C[C@@H]1CC[C@@]2(OC1)O[C@H]1C[C@H]3[C@@H]4CC[C@H]5C[C@@H](O[C@@H]6O[C@@H](CO)[C@@H](O[C@@H]7O[C@@H](CO)[C@@H](OC(=O)Nc8ccccc8F)[C@H](O)[C@@H]7O)[C@H](O)[C@@H]6O)CC[C@]5(C)[C@H]4C(=O)C[C@]3(C)[C@H]1[C@@H]2C | 4 | 0.1 mg/kg |
